From patent publication US6355799B1, “Substituted benzene compounds, process for their preparation, and herbicidal and defoliant compositions containing them” (ISK Americas Incorporated, priority 1997, dated 2002)

Key:
Assay type in all cases: in vivo
[1] = tested on: upland rice (Oryza sp., var. Tebonnet, RICE); test: Pre-emerge test, crop safety; conditions: rating scale 0-100, 14 days after application
In short: (§1)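 Compounds in acetone were track-sprayed at 15-1000 g ai/ha (187 l/ha) on sandy loam pots: pre-emerge one day after seeding, post-emerge at 2-3 leaf stage with 0.25% v/v non-ionic surfactant. Phytotoxicity was rated 14 days later on a 0 (no damage) to 100 (complete death) scale.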

[2] = tested on: field corn (Zea mays L., var. Dekalb 535, CORN); test: Pre-emerge test, crop safety; conditions: rating scale 0-100, 14 days after application
In short: as §1

[3] = tested on: common ragweed (Ambrosia artemisizfolia L., AMBEL); test: Pre-emerge test, greenhouse herbicide activity screening; conditions: rating scale 0-100, 14 days after application
In short: (§2)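 Fourteen days after spraying, crop and weed injury was graded visually from 0, no effect, to 100, every plant dead. Test substances were dissolved in acetone and applied at 15–1000 g ai/ha with a flat-fan nozzle. Application was either pre-emergence, one day after sowing, or post-emergence at the 2–3 leaf stage.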

[4] = tested on: green foxtail (Setaria viridis, SETVI); test: as above; conditions: rating scale 0-100, 14 days after application
In short: as §2

[5] = tested on: ivyleaf morningglory (Ipomoea hederacea, IPOHE); test: as above; conditions: rating scale 0-100, 14 days after application
In short: as §2

[6] = tested on: lambsquarters (Chenopodium album, CHEAL); test: as above; conditions: rating scale 0-100, 14 days after application
In short: as §2

[7] = tested on: velvetleaf (Abutilon theophrasti, ABUTH); test: as above; conditions: rating scale 0-100, 14 days after application
In short: as §2

[8] = tested on: sicklepod (Cassia obtusifolia, CASOB); test: as above; conditions: rating scale 0-100, 14 days after application
In short: as §2

[9] = tested on: large crabgrass (Digitaria sanguinalis, DIGSA); test: as above; conditions: rating scale 0-100, 14 days after application
In short: as §2

[10] = tested on: johnsongrass (Sorghum halepense, SORHA); test: as above; conditions: rating scale 0-100, 14 days after application
In short: as §2

[11] = tested on: barnyardgrass (Echinochloa crus-galli, ECHCG); test: as above; conditions: rating scale 0-100, 14 days after application
In short: as §2

[12] = tested on: upland rice (Oryza sp., var. Tebonnet, RICE); test: Post-emerge test, crop safety; conditions: rating scale 0-100 (0 no damage, 100 complete death), 14 days after application
In short: as §2

[13] = tested on: field corn (Zea mays L., var. Dekalb 535, CORN); test: Post-emerge test, crop safety; conditions: rating scale 0-100 (0 no damage, 100 complete death), 14 days after application
In short: as §2

[14] = tested on: redroot pigweed (Amaranthus retroflexus, AMARE); test: Pre-emerge test, greenhouse herbicide activity screening; conditions: rating scale 0-100, 14 days after application
In short: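 Plants grown in 10 cm pots of sandy loam mix received acetone-dissolved compounds through a moving flat-fan nozzle. Doses ranged from 15 to 1000 g ai/ha. Pre-emerge pots were seeded one day earlier, post-emerge pots 8–21 days earlier. Fourteen days on, each pot was graded 0–100 for damage.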

[15] = tested on: common ragweed (Ambrosia artemisizfolia L., AMBEL); test: Post-emerge test, greenhouse herbicide activity screening; conditions: rating scale 0-100 (0 no damage, 100 complete death), 14 days after application
In short: (§3)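 Each test used a mechanized track sprayer delivering 187 l/ha of acetone solution at 15–1000 g ai/ha. Post-emerge foliage at 2–3 leaves was treated with added 0.25% v/v non-ionic surfactant and bottom-watered only. Injury was assessed on day 14, where 100 means total kill.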

[16] = tested on: green foxtail (Setaria viridis, SETVI); test: as above; conditions: rating scale 0-100 (0 no damage, 100 complete death), 14 days after application
In short: as §3

[17] = tested on: ivyleaf morningglory (Ipomoea hederacea, IPOHE); test: as above; conditions: rating scale 0-100 (0 no damage, 100 complete death), 14 days after application
In short: as §3

[18] = tested on: lambsquarters (Chenopodium album, CHEAL); test: as above; conditions: rating scale 0-100 (0 no damage, 100 complete death), 14 days after application
In short: as §3

[19] = tested on: velvetleaf (Abutilon theophrasti, ABUTH); test: as above; conditions: rating scale 0-100 (0 no damage, 100 complete death), 14 days after application
In short: as §3

[20] = tested on: sicklepod (Cassia obtusifolia, CASOB); test: as above; conditions: rating scale 0-100 (0 no damage, 100 complete death), 14 days after application
In short: as §3

[21] = tested on: redroot pigweed (Amaranthus retroflexus, AMARE); test: as above; conditions: rating scale 0-100 (0 no damage, 100 complete death), 14 days after application
In short: as §3

[22] = tested on: large crabgrass (Digitaria sanguinalis, DIGSA); test: as above; conditions: rating scale 0-100 (0 no damage, 100 complete death), 14 days after application
In short: as §3

[23] = tested on: johnsongrass (Sorghum halepense, SORHA); test: as above; conditions: rating scale 0-100 (0 no damage, 100 complete death), 14 days after application
In short: as §3

[24] = tested on: barnyardgrass (Echinochloa crus-galli, ECHCG); test: as above; conditions: rating scale 0-100 (0 no damage, 100 complete death), 14 days after application
In short: as §3

COc1c(Cl)cc(F)c(-n2c(=O)cc(C(F)(F)F)n(C)c2=O)c1CC(Cl)C(=O)OCC(F)(F)F (stereo not drawn) [14-21]
30: Post-emerge Herbicidal Activity, phytotoxicity rating CASOB ([20]; Rate 63 g ai/ha)
100: Pre-emerge herbicidal activity, phytotoxicity rating ABUTH ([7]; 250 g ai/ha) | Post-emerge phytotoxicity rating CORN (crop damage) ([13]; Rate 250 g ai/ha) | Post-emerge Herbicidal Activity, phytotoxicity rating ABUTH ([19]; Rate 63 g ai/ha) | Post-emerge Herbicidal Activity, phytotoxicity rating AMARE ([21]; Rate 250 g ai/ha) | Post-emerge Herbicidal Activity, phytotoxicity rating ECHCG ([24]; Rate 250 g ai/ha)
20: Pre-emerge phytotoxicity rating, crop damage RICE ([1]; 250 g ai/ha) | Pre-emerge herbicidal activity, phytotoxicity rating CHEAL ([6]; 63 g ai/ha) | Pre-emerge herbicidal activity, phytotoxicity rating ECHCG ([11]; 250 g ai/ha)
98: Post-emerge Herbicidal Activity, phytotoxicity rating DIGSA ([22]; Rate 250 g ai/ha)
70: Pre-emerge phytotoxicity rating, crop damage CORN ([2]; 250 g ai/ha) | Pre-emerge herbicidal activity, phytotoxicity rating DIGSA ([9]; 250 g ai/ha) | Post-emerge Herbicidal Activity, phytotoxicity rating CHEAL ([18]; Rate 63 g ai/ha) | Post-emerge Herbicidal Activity, phytotoxicity rating DIGSA ([22]; Rate 63 g ai/ha) | Post-emerge Herbicidal Activity, phytotoxicity rating SORHA ([23]; Rate 250 g ai/ha)
60: Pre-emerge herbicidal activity, phytotoxicity rating AMARE ([14]; 63 g ai/ha) | Post-emerge Herbicidal Activity, phytotoxicity rating CASOB ([20]; Rate 250 g ai/ha)
10: Pre-emerge herbicidal activity, phytotoxicity rating CASOB ([8]; 250 g ai/ha) | Post-emerge phytotoxicity rating RICE (crop damage) ([12]; Rate 63 g ai/ha) | Post-emerge Herbicidal Activity, phytotoxicity rating SETVI ([16]; Rate 63 g ai/ha) | Post-emerge Herbicidal Activity, phytotoxicity rating SORHA ([23]; Rate 63 g ai/ha)
95: Pre-emerge herbicidal activity, phytotoxicity rating AMARE ([14]; 250 g ai/ha) | Post-emerge Herbicidal Activity, phytotoxicity rating AMBEL ([15]; Rate 250 g ai/ha) | Post-emerge Herbicidal Activity, phytotoxicity rating CHEAL ([18]; Rate 250 g ai/ha) | Post-emerge Herbicidal Activity, phytotoxicity rating ABUTH ([19]; Rate 250 g ai/ha)
45: Post-emerge phytotoxicity rating RICE (crop damage) ([12]; Rate 250 g ai/ha)
90: Post-emerge Herbicidal Activity, phytotoxicity rating AMARE ([21]; Rate 63 g ai/ha)
75: Pre-emerge herbicidal activity, phytotoxicity rating CHEAL ([6]; 250 g ai/ha)
50: Post-emerge phytotoxicity rating CORN (crop damage) ([13]; Rate 63 g ai/ha) | Post-emerge Herbicidal Activity, phytotoxicity rating AMBEL ([15]; Rate 63 g ai/ha) | Post-emerge Herbicidal Activity, phytotoxicity rating IPOHE ([17]; Rate 250 g ai/ha)
0: Pre-emerge phytotoxicity rating, crop damage RICE ([1]; 63 g ai/ha) | Pre-emerge phytotoxicity rating, crop damage CORN ([2]; 63 g ai/ha) | Pre-emerge herbicidal activity, phytotoxicity rating AMBEL ([3]; 63 g ai/ha) | Pre-emerge herbicidal activity, phytotoxicity rating SETVI ([4]; 63 g ai/ha) | Pre-emerge herbicidal activity, phytotoxicity rating SETVI ([4]; 250 g ai/ha) | Pre-emerge herbicidal activity, phytotoxicity rating IPOHE ([5]; 63 g ai/ha) | Pre-emerge herbicidal activity, phytotoxicity rating IPOHE ([5]; 250 g ai/ha) | Pre-emerge herbicidal activity, phytotoxicity rating CASOB ([8]; 63 g ai/ha) | Pre-emerge herbicidal activity, phytotoxicity rating DIGSA ([9]; 63 g ai/ha) | Pre-emerge herbicidal activity, phytotoxicity rating SORHA ([10]; 63 g ai/ha) | Pre-emerge herbicidal activity, phytotoxicity rating ECHCG ([11]; 63 g ai/ha)
99: Post-emerge Herbicidal Activity, phytotoxicity rating ECHCG ([24]; Rate 63 g ai/ha)
40: Pre-emerge herbicidal activity, phytotoxicity rating AMBEL ([3]; 250 g ai/ha) | Pre-emerge herbicidal activity, phytotoxicity rating ABUTH ([7]; 63 g ai/ha) | Post-emerge Herbicidal Activity, phytotoxicity rating SETVI ([16]; Rate 250 g ai/ha) | Post-emerge Herbicidal Activity, phytotoxicity rating IPOHE ([17]; Rate 63 g ai/ha)
35: Pre-emerge herbicidal activity, phytotoxicity rating SORHA ([10]; 250 g ai/ha)
